According to PubChem BioAssay AID212 (DTP/NCI, 2004):
Where “and” joins values, the source holds several entries; their conditions need not be identical. Identical values can stand only once. Inconclusive results are not listed.

Test system: BDF1 mice, colon carcinoma 38 sc, T/C %
Test: NCI In Vivo Anticancer Drug Screen. Data for tumor model Colon Carcinoma 38 (subcutaneous) in B6D2F1 (BDF1) mice
Conditions: endpoint: median tumor weight (est.), higher = larger tumour
In short: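 T/C readout: treated group (T) measurement over vehicle control group (C) measurement. Endpoint is survival or tumor size in mice bearing a transplanted tumor.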

[1] = dose: 25.0 mg/kg/injection, schedule: Q07DX002 (ip), vehicle: saline
[2] = dose: 50.0 mg/kg/injection, schedule: Q07DX002 (ip), vehicle: saline
[3] = dose: 100.0 mg/kg/injection, schedule: Q07DX002 (ip), vehicle: saline
[4] = dose: 50.0 mg/kg/injection, schedule: Q07DX002 (ip), vehicle: Klucel (hydroxypropylcellulose) (HPC)
[5] = dose: 100.0 mg/kg/injection, schedule: Q07DX002 (ip), vehicle: Klucel (hydroxypropylcellulose) (HPC)
[6] = dose: 50.0 mg/kg/injection, schedule: Q07DX002 (ip), vehicle: saline with Tween-80
[7] = dose: 200.0 mg/kg/injection, schedule: Q07DX002 (ip), vehicle: saline with Tween-80
[8] = dose: 400.0 mg/kg/injection, schedule: Q07DX002 (ip), vehicle: saline with Tween-80

In the case of C[C@@H](CN1CC(=O)NC(=O)C1)N1CC(=O)NC(=O)C1, the T/C [1] is reported as 87 % of control, the T/C [2] is reported as 95 % of control and the T/C [3] is reported as 97 % of control. For the same molecule, the T/C (dose: 100.0 mg/kg/injection, schedule: Q07DX003 (ip), vehicle: saline) was 71 % of control, the T/C (dose: 200.0 mg/kg/injection, schedule: Q07DX002 (ip), vehicle: saline) was 110 % of control and the T/C (dose: 200.0 mg/kg/injection, schedule: Q07DX003 (ip), vehicle: saline) was 71 % of control. For the same molecule, the T/C (dose: 400.0 mg/kg/injection, schedule: Q07DX002 (ip), vehicle: saline) was 93 % of control, the T/C (dose: 400.0 mg/kg/injection, schedule: Q07DX003 (ip), vehicle: saline) was 71 % of control and the T/C (dose: 800.0 mg/kg/injection, schedule: Q07DX002 (ip), vehicle: saline) was 66 % of control. The T/C (dose: 800.0 mg/kg/injection, schedule: Q07DX003 (ip), vehicle: saline) was 38 % of control.
For CN(C)c1ccc2c(SCC(=O)OCC(=O)[C@@]3(O)CC[C@H]4[C@@H]5CCC6=CC(=O)C=C[C@]6(C)[C@H]5C(=O)C[C@@]43C)c3ccc(N(C)C)cc3nc2c1, the T/C [4] was 82 % of control, the T/C [5] was 69 % of control and the T/C (dose: 200.0 mg/kg/injection, schedule: Q07DX002 (ip), vehicle: Klucel (hydroxypropylcellulose) (HPC)) was 56 % of control. The T/C (dose: 400.0 mg/kg/injection, schedule: Q07DX002 (ip), vehicle: Klucel (hydroxypropylcellulose) (HPC)) was 77 % of control and the T/C (dose: 800.0 mg/kg/injection, schedule: Q07DX002 (ip), vehicle: Klucel (hydroxypropylcellulose) (HPC)) was 62 % of control.
With O=C(O)C1CSCN1 (stereo not drawn) the T/C (dose: 6.25 mg/kg/injection, schedule: Q07DX002 (ip), vehicle: saline) was 110 % of control, the T/C (dose: 6.25 mg/kg/injection, schedule: Q07DX002 (ip), vehicle: water) was 106 % of control and the T/C (dose: 12.5 mg/kg/injection, schedule: Q07DX002 (ip), vehicle: saline) was 98 % of control. For the same molecule, the T/C [1] was 110 % of control, the T/C (dose: 25.0 mg/kg/injection, schedule: Q07DX002 (ip), vehicle: water) was 114 % of control and the T/C [2] was 105 % of control. The T/C (dose: 50.0 mg/kg/injection, schedule: Q07DX002 (ip), vehicle: water) was 87 % of control and the T/C [3] was 80 % of control.
In the case of C/C(=N\NC(N)=O)c1cccc(/C(C)=N/NC(N)=O)n1, the T/C (dose: 12.5 mg/kg/injection, schedule: Q07DX002 (ip), vehicle: saline with Tween-80) is reported as 87 % of control and 94 % of control, the T/C (dose: 25.0 mg/kg/injection, schedule: Q07DX002 (ip), vehicle: saline with Tween-80) is reported as 66 % of control and 71 % of control and the T/C [6] is reported as 73 % of control and 96 % of control. The T/C [7] was 96 % of control and the T/C [8] was 57 % of control.
In the case of CC(C)NCC(O)COc1cccc2ccccc12 (stereo not drawn), the T/C (dose: 4.0 mg/kg/injection, schedule: Q07DX002 (ip), vehicle: Klucel (hydroxypropylcellulose) (HPC)) is reported as 122 % of control, the T/C (dose: 8.0 mg/kg/injection, schedule: Q07DX002 (ip), vehicle: Klucel (hydroxypropylcellulose) (HPC)) is reported as 100 % of control and the T/C (dose: 64.0 mg/kg/injection, schedule: Q07DX002 (ip), vehicle: Klucel (hydroxypropylcellulose) (HPC)) is reported as 88 % of control.
With CC(=S)NC(O)C(=O)c1ccccc1 (stereo not drawn) the T/C [6] was 71 % of control and 82 % of control, the T/C (dose: 100.0 mg/kg/injection, schedule: Q07DX002 (ip), vehicle: saline with Tween-80) was 77 % of control and 99 % of control and the T/C [7] was 98 % of control and 103 % of control. The T/C [8] was 115 % of control.
In the case of C/C=C/C1=CC(=O)C(O)C1O (stereo not drawn), the T/C (dose: 90.0 mg/kg/injection, schedule: Q07DX002 (ip), vehicle: water) is reported as 75 % of control and the T/C (dose: 180.0 mg/kg/injection, schedule: Q07DX002 (ip), vehicle: water) is reported as 170 % of control.
With O=C(O)CC(=O)O.[NH-]C1CCCCC1[NH-].[Pt+2] (stereo not drawn) the T/C (dose: 12.5 mg/kg/injection, schedule: Q07DX002 (ip), vehicle: dextrose) was 84 % of control, the T/C (dose: 20.0 mg/kg/injection, schedule: Q07DX003 (ip), vehicle: dextrose) was 120 % of control and the T/C (dose: 25.0 mg/kg/injection, schedule: Q07DX002 (ip), vehicle: dextrose) was 55 % of control and 64 % of control. The T/C (dose: 40.0 mg/kg/injection, schedule: Q07DX003 (ip), vehicle: dextrose) was 48 % of control, the T/C (dose: 50.0 mg/kg/injection, schedule: Q07DX002 (ip), vehicle: dextrose) was 12 % of control and 35 % of control and the T/C (dose: 80.0 mg/kg/injection, schedule: Q07DX003 (ip), vehicle: dextrose) was 9 % of control.
With OC1CCCC2CCCNC12 (stereo not drawn) the T/C (dose: 6.25 mg/kg/injection, schedule: Q07DX002 (ip), vehicle: Klucel (hydroxypropylcellulose) (HPC)) was 102 % of control, the T/C (dose: 12.5 mg/kg/injection, schedule: Q07DX002 (ip), vehicle: Klucel (hydroxypropylcellulose) (HPC)) was 100 % of control and the T/C (dose: 25.0 mg/kg/injection, schedule: Q07DX002 (ip), vehicle: Klucel (hydroxypropylcellulose) (HPC)) was 85 % of control. For the same molecule, the T/C [4] was 100 % of control and the T/C [5] was 109 % of control.
